Where “and” joins values, the source holds several entries; their conditions need not be identical. Equal values may be shown once. Read-outs that look alike come from different tables or passages of the source.
Tests used:
Solubility in water = assay type: physicochemical; settings: 24 °C, room temperature (22-26° C.)
[1] = Pharmacokinetic study after unilateral transtympanic administration (plasma, inner ear, perilymph, brain); assay type: in vivo, female Sprague Dawley rats; settings: rat; for concentration at 14 days: 14 days after administration; for ACOU085 plasma concentration / ACOU085 brain concentration: 6% thermo-reversible formulation 1.2 mg/animal unilateral transtympanic
Method: Eighteen female Sprague Dawley rats entered a pharmacokinetic study, to determine the distribution of a 6% thermo-reversible ACOU085 formulation at a dose of 1.2 mg/animal after unilateral transtympanic administration in peripheral plasma, inner ear, perilymph, brain and CSF.
4, 24, 48, 96, 168 and 336 h after dosing n=3 rats out of every group were euthanized with carbon dioxide, peripheral and final blood samples and brain were taken and inner ears were dissected to analyze ACOU085 concentrations. Body weight was assessed on the day 1-4, on day 7 and day 14. Animals were checked for any clinical signs associated with toxicity of the test substance.

[2] = Viscosity test: temperature-induced rise in viscosity; assay type: physicochemical; settings: 15% poloxamer 407 gel with 2% API vs without
Method: The viscosity normally is measured with a viscometer, in particular a rheometer. A rheometer usually is a laboratory device measuring flow characteristics of a liquid, suspension or slurry in response to applied forces. A common device type is a so called shear rheometer, in which a shear stress is applied to the corresponding material. Devices which can be used to measure the viscosity of the aqueous gel compositions according to the invention are rheometers from Brookfield (AMETEK Brookfield). […]
Note: Maximal Viscosity is Identical for all Formulations (Due to the Test Method)

[3] = 6% thermo-reversible formulation 1.2 mg/animal transtympanic

Row | Compound | solubility (Solubility in water) [µg/mL] | concentration at 336 h ([1]; female, Sprague Dawley, other: transtympanic, perilymph, 6% formulation 1.2 mg/animal unilateral transtympanic, Left side, 336 h, animals 1-3, read-out: Uptake of ACOU085 into the perilymph: ACOU085 inner ear concentration) [nM] | concentration at 14 days ([1]; female, Sprague Dawley, brain, other: transtympanic, 1.2 mg/animal, read-out: brain concentration (average)) [nM] | concentration at 4 h ([1]; female, Sprague Dawley, inner ear, left side, other: transtympanic, 1.2 mg/animal, 6% formulation 1.2 mg/animal unilateral transtympanic, Left side, 4 h, animals 1-3, read-out: ACOU085 inner ear concentration) [nM] | concentration at 14 days ([1]; female, Sprague Dawley, plasma, other: transtympanic, 1.2 mg/animal, read-out: plasma concentration (average)) [nM] | concentration at 7 days ([1]; female, Sprague Dawley, plasma, other: transtympanic, 1.2 mg/animal, after 7 days) [nM] | ACOU085 inner ear concentration ([1]; 6% formulation 1.2 mg/animal unilateral transtympanic, Left side, 4 h, animals 1-3) | maximal average concentration in brain [1, 3] [nmol/L] | maximal average concentration in plasma [1, 3] [nmol/L] | ACOU085 plasma concentration ([1]; 4 h (printed 4 11), animals 1-3) | ACOU085 brain concentration ([1]; 48 h, animals 1-3) | ACOU085 plasma concentration ([1]; 48 h, animals 1-3) | ACOU085 brain concentration ([1]; 96 h, animals 1-3) | ACOU085 plasma concentration ([1]; 96 h, animals 1-3) | time of peak brain concentration ([1]; after injection) [h] | uptake into the brain and into the plasma ([1]; compared with inner ear tissue and perilymph) | Uptake of ACOU085 into the perilymph: ACOU085 inner ear concentration ([1]; perilymph, 6% formulation 1.2 mg/animal unilateral transtympanic, Left side, 336 h, animals 1-3) | effect of API on the viscosity-temperature relation of the formulation [2]
1 | O=C(NCc1cccc(S(F)(F)(F)(F)F)c1)[C@H]1C[C@@H]2CC[C@H]1C2 [ACOU085, (1S,2S,4R)—N-(3-(pentafluorosulfanyl)benzyl) bicyclo[2.2.1]heptane-2-carboxamide] | < 1000 | 4 | 8 | 55 | 4 | 26 | 82 nmol/L and 93 nmol/L | 82 | 45 | 9 nnmol/L and 6 nnmol/L and 12 nnmol/L | 38 nnmol/L and 53 nnmol/L and 76 nnmol/L | 12 nnmol/L and 18 nnmol/L and 16 nnmol/L | 94 nnmol/L and 52 nnmol/L and 68 nnmol/L | 48 nnmol/L and 26 nnmol/L and 33 nnmol/L | 96 | low in comparison to the inner ear tissue and perilymph | 3 nmol/L and 2 nmol/L | no effect
2 | O=C(NCc1cccc(S(F)(F)(F)(F)F)c1)[C@H]1C[C@@H]2CC[C@H]1C2 (racemic) [Compound A, (1SR,2SR,4RS)—N-(3-(pentafluoro-λ6-sulfanyl)benzyl) bicyclo[2.2.1]heptane-2-carboxamide] | < 1000 |  |  |  |  |  |  |  |  |  |  |  |  |  |  |  |  | 

Source: patent US20260083669A1, “AQUEOUS GEL COMPOSITION” (Acousia Therapeutics GmbH, priority 2022, published 2026)
